From patent US12691136B2, “Metal compositions and methods of use thereof” (THE UNIVERSITY OF MASSACHUSETTS, priority 2020, dated 2026)
“Also recorded” adds a separate entry of the source. Like-named read-outs stand apart in the source and are kept apart here.

Experiments:
[1] = system: Pseudomonas aeruginosa PAO1; experiment: Antibacterial assay / bacterial checkerboard assay (MIC, FIC, MBC); conditions: for Enhancement: MIC without TU vs with 7 mM TU; for change in MIC / activity with the addition of TU (isobologram): FIG. 1A / 1B, combination with TU; for MIC: Pseudomonas aeruginosa; for Fold Improvement in MIC: at the best FIC; for impact of TU on activity: common antibiotics with TU, Table 3 entries; for Best FIC: with TU at the [TU] of the same line
[2] = system: Pseudomonas aeruginosa PAO1; conditions: reference antibiotics against P. aeruginosa PAO1; cited from earlier work
[3] = [Au], Table 8, strain not given

CC(=O)OC[C@H]1O[C@@H]([S-])[C@H](OC(C)=O)[C@@H](OC(C)=O)[C@@H]1OC(C)=O.CCP(CC)CC.[Au+] [Auranofin, auranofin]
MIC (0 mM TU) ([1]; [Au], Table 9): 377 µM | activity enhancement ([1]; 7 mM TU vs alone): 256 fold | MIC (7 mM TU) ([1]; [Au], Table 9): 1.5 µM | Enhancement ([1]; Table 9): 256

O.O.O.[Cl][Au-]([Cl])([Cl])[Cl].[H+] [HAuCl4 (Au^3+), tetrachloroauric(III) acid trihydrate]
MIC (0 mM TU) ([1]; [Au], Table 9): 40 µM | activity enhancement ([1]; 7 mM TU vs alone): 32 fold | MIC (7 mM TU) ([1]; [Au], Table 9): 1.3 µM | Enhancement ([1]; Table 9): 32

C[PH](C)(C)[Au][S]CCO [MS-40, trimethylphosphine gold(I) mercaptoethanol]
MIC (0 mM TU) [1, 3]: 5.7 µM | MIC (1 mM TU) ([1]; 1 mM TU, [Au], Table 8, strain not given): 5.7 µM | MIC (2 mM TU) ([1]; 2 mM TU, [Au], Table 8, strain not given): 5.7 µM | MIC (3 mM TU) ([1]; 3 mM TU, [Au], Table 8, strain not given): 5.7 µM | MIC (7 mM TU) [1, 3]: 5.7 µM | MIC (13 mM TU) ([1]; 13 mM TU, [Au], Table 8, strain not given): 2.9 µM | MIC (27 mM TU) ([1]; 27 mM TU, [Au], Table 8, strain not given): 2.9 µM | MIC (54 mM TU) ([1]; 54 mM TU, [Au], Table 8, strain not given): 1.4 µM | activity enhancement ([1]; at 54 mM TU): 4 fold

CCN1CCN(C(=O)N[C@@H](C(=O)N[C@@H]2C(=O)N3[C@@H]2SC(C)(C)[C@@H]3C(=O)O)c2ccccc2)C(=O)C1=O [Piperacillin]
change in MIC / activity with the addition of TU (isobologram) [1]: very little change | change in MIC / activity with the addition of TU (isobologram) ([1]; listed as piperacillin): almost no change | MIC ([1]; PAO1, read-out: MIC w/o TU): 2 µM | MIC ([1]; PAO1, read-out: MIC with TU): 2 µM | Fold Improvement in MIC [1]: 1 | impact of TU on activity [1]: no impact | Best FIC [1]: 1.0

NC(N)=S [TU, thiourea]
MIC ([1]; PAO1): 16 mg/mL

O=C(O)c1cn(C2CC2)c2cc(N3CCNCC3)c(F)cc2c1=O [ciprofloxacin]
change in MIC / activity with the addition of TU (isobologram) [1]: very little change; also recorded: almost no change

Gentamicin
change in MIC / activity with the addition of TU (isobologram) [1]: very little change; also recorded: almost no change | MIC with TU ([1]; TU at the [TU] of the same line (best FIC)): 4.0 µM | Fold Improvement in MIC [1]: 1 | impact of TU on activity [1]: no impact | Best FIC [1]: 1.0 | MIC w/o TU ([1]; without TU): 4.0 µM

colistin
MIC [2]: 0.001 mg/mL
